Data published in patent US12290519B2, “Anti-inflammatory coupling compound drug, and preparation method therefor and use thereof” (COVAL BIOPHARMA (SHANGHAI) CO., LTD., priority 2021, dated 2025).

Test: Hydrolysis rate / drug release rate of the compounds (release of JAK inhibitor, HPLC)
Format: physicochemical
Details: % release of JAK inhibitor from sample in acetonitrile/water=7/3 (v/v), 37° C. constant temperature shaker, sampled days 1-4, HPLC
Outline: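 Compounds (about 5 mg per 20 mL) were dissolved in acetonitrile/water 7/3 (v/v) and held sealed at 37° C in a shaker, sampled on days 0, 1, 2, 3 and 4. Released JAK inhibitor was quantified by HPLC peak area against a 0.0002–0.08 mg/mL reference curve and expressed as % release corrected for molecular weights.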

Structure (SMILES) | Release Rate (%/day)
CCC(C(=O)OCn1ccc2c(-c3cnn(C4(CC#N)CN(S(=O)(=O)CC)C4)c3)ncnc21)c1ccc(N2Cc3ccccc3C2=O)cc1 (stereo not shown) [Ex. 76, Methyl (4-(1-(3-(cyanomethyl)-1-(ethylsulfonyl)azetidin-3-yl)-1H-pyrazol-4-yl)-7H-pyrrolo [2,3-d]pyrimidin-7-yl) 2-(4-(1-oxoisoindolin-2-yl)phenyl) butanoate] | 0.05 %/day
CC(C(=O)n1ccc2c(-c3cnn([C@H](CC#N)C4CCCC4)c3)ncnc21)c1ccc(CC2CCCC2=O)cc1 (stereo partly drawn) [Ex. 77, (3R)-3-cyclopentyl-3-(4-(7-(2-(4-((2-oxocyclopentyl)methyl)phenyl)propanoyl)-7H-pyrrolo [2,3-d]pyrimidin-4-yl)-1H-pyrazol-1-yl) propanenitrile] | 3.69 %/day
CC(=O)Nc1ccc(CC(=O)n2ccc3c(-c4cnn([C@H](CC#N)C5CCCC5)c4)ncnc32)cc1 [Ex. 78, (R)—N-(4-(2-(4-(1-(2-cyano-1-cyclopentylethyl)-1H-pyrazol-4-yl)-7H-pyrrolo [2,3-d]pyrimidin-7-yl)-2-oxoethyl)phenyl) acetamide] | 6.27 %/day
COc1ccc2c(c1)c(CC(=O)n1ccc3c(-c4cnn([C@H](CC#N)C5CCCC5)c4)ncnc31)c(C)n2C(=O)c1ccc(Cl)cc1 [Ex. 79, (R)-3-(4-(7-(2-(1-(4-chlorobenzoyl)-5-methoxy-2-methyl-1H-indol-3-yl)acetyl)-7H-pyrrolo [2,3-d]pyrimidin-4-yl)-1H-pyrazol-1-yl)-3-cyclopentylpropanenitrile] | 7.38 %/day
CC(C)(C)OC(=O)N[C@H](C(=O)n1ccc2c(-c3cnn([C@H](CC#N)C4CCCC4)c3)ncnc21)c1ccccc1 [Ex. 80, Tert-butyl ((S)-2-(4-(1-((R)-2-cyano-1-cyclopentylethyl)-1H-pyrazol-4-yl)-7H-pyrrolo [2,3-d]pyrimidin-7-yl)-2-oxo-1-phenylethyl) carbamate] | 27.29 %/day
CCS(=O)(=O)N1CC(CC#N)(n2cc(-c3ncnc4c3ccn4COC(=O)c3ccccc3Nc3cccc(Cl)c3C)cn2)C1 [Ex. 81, Methyl (4-(1-(3-(cyanomethyl)-1-(ethylsulfonyl)azetidin-3-yl)-1H-pyrazol-4-yl)-7H-pyrrolo [2,3-d]pyrimidin-7-yl) 2-((3-chloro-2-methylphenyl)amino) benzoate] | 0.013 %/day
Cc1cccc(Nc2ccccc2C(=O)n2ccc3c(-c4cnn([C@H](CC#N)C5CCCC5)c4)ncnc32)c1C [Ex. 82, (R)-3-cyclopentyl-3-(4-(7-(2-((2,3-dimethylphenyl)amino)benzoyl)-7H-pyrrolo [2,3-d]pyrimidin-4-yl)-1H-pyrazol-1-yl) propanenitrile] | 0.43 %/day
CCS(=O)(=O)N1CC(CC#N)(n2cc(-c3ncnc4c3ccn4COC(=O)c3ccccc3Nc3cccc(C)c3C)cn2)C1 [Ex. 83, Methyl (4-(1-(3-(cyanomethyl)-1-(ethylsulfonyl)azetidin-3-yl)-1H-pyrazol-4-yl)-7H-pyrrolo [2,3-d]pyrimidin-7-yl) 2-((2,3-dimethylphenyl)amino) benzoate] | 0.003 %/day
CCS(=O)(=O)N1CC(CC#N)(n2cc(-c3ncnc4c3ccn4COC(=O)Cc3ccc(NC(C)=O)cc3)cn2)C1 [Ex. 84, Methyl (4-(1-(3-(cyanomethyl)-1-(ethylsulfonyl)azetidin-3-yl)-1H-pyrazol-4-yl)-7H-pyrrolo [2,3-d]pyrimidin-7-yl) 2-(4-acetamidophenyl) acetate] | 0.06 %/day
CCc1cccc2c3c([nH]c12)C(CC)(CC(=O)OCn1ccc2c(-c4cnn(C5(CC#N)CN(S(=O)(=O)CC)C5)c4)ncnc21)OCC3 (stereo not shown) [Ex. 85, Methyl (4-(1-(3-(cyanomethyl)-1-(ethylsulfonyl)azetidin-3-yl)-1H-pyrazol-4-yl)-7H-pyrrolo [2,3-d]pyrimidin-7-yl) 2-(1,8-diethyl-1,3,4,9-tetrahydropyrano [3,4-b]indol-1-yl) acetate] | 0.61 %/day
CC(C)Cc1ccc([C@H](C)C(=O)OCn2ccc3c(-c4cnn([C@H](CC#N)C5CCCC5)c4)ncnc32)cc1 [Ex. 86, (4-(1-((R)-2-cyano-1-cyclopentylethyl)-1H-pyrazol-4-yl)-7H-pyrrolo [2,3-d]pyrimidin-7-yl) methyl (S)-2-(4-isobutylphenyl) propanoate] | <0.01 %/day
COc1ccc2cc([C@H](C)C(=O)OCn3ccc4c(-c5cnn([C@H](CC#N)C6CCCC6)c5)ncnc43)ccc2c1 [Ex. 87, (4-(1-((R)-2-cyano-1-cyclopentylethyl)-1H-pyrazol-4-yl)-7H-pyrrolo [2,3-d]pyrimidin-7-yl) methyl (S)-2-(6-methoxynaphthalen-2-yl) propanoate] | 0.01 %/day
CNS(=O)(=O)C[C@H]1CC[C@H](N(C)c2ncnc3c2ccn3COC(=O)[C@@H](C)c2ccc(CC(C)C)cc2)CC1 [Ex. 88, (4-(Methyl ((trans)-4-((N-methylsulfamoyl)methyl)cyclohexyl)amino)-7H-pyrrolo [2,3-d]pyrimidin-7-yl) methyl (S)-2-(4-isobutylphenyl) propanoate] | 0.17 %/day
CNS(=O)(=O)C[C@H]1CC[C@H](N(C)c2ncnc3c2ccn3COC(=O)[C@@H](C)c2ccc3cc(OC)ccc3c2)CC1 [Ex. 89, (4-(Methyl ((trans)-4-((N-methylsulfamoyl)methyl)cyclohexyl)amino)-7H-pyrrolo [2,3-d]pyrimidin-7-yl) methyl (S)-2-(6-methoxynaphthalen-2-yl) propanoate] | 0.16 %/day
CNS(=O)(=O)C[C@H]1CC[C@H](N(C)c2ncnc3c2ccn3COC(=O)C(C)c2cccc(C(=O)c3ccccc3)c2)CC1 (stereo partly drawn) [Ex. 90, (4-(Methyl ((trans)-4-((N-methylsulfamoyl)methyl)cyclohexyl)amino)-7H-pyrrolo [2,3-d]pyrimidin-7-yl) methyl 2-(3-benzoylphenyl) propanoate] | 0.35 %/day
CNS(=O)(=O)C[C@H]1CC[C@H](N(C)c2ncnc3c2ccn3COC(=O)[C@@H](NC(=O)OC(C)(C)C)c2ccccc2)CC1 [Ex. 91, (4-(Methyl ((trans)-4-((N-methylsulfamoyl)methyl)cyclohexyl)amino)-7H-pyrrolo [2,3-d]pyrimidin-7-yl) methyl (S)-2-((tert-butoxycarbonyl)amino)-2-phenylacetate] | 1.65 %/day
CNS(=O)(=O)C[C@H]1CC[C@H](N(C)c2ncnc3c2ccn3COC(=O)Cc2ccccc2Nc2c(Cl)cccc2Cl)CC1 [Ex. 92, (4-(Methyl ((trans)-4-((N-methylsulfamoyl)methyl)cyclohexyl)amino)-7H-pyrrolo [2,3-d]pyrimidin-7-yl) methyl 2-(2-((2,6-dichlorophenyl)amino)phenyl) acetate] | 0.82 %/day
CNS(=O)(=O)C[C@H]1CC[C@H](N(C)c2ncnc3c2ccn3COC(=O)Cc2ccc(NC(C)=O)cc2)CC1 [Ex. 93, (4-(Methyl ((trans)-4-((N-methylsulfamoyl)methyl)cyclohexyl)amino)-7H-pyrrolo [2,3-d]pyrimidin-7-yl) methyl 2-(4-acetamidophenyl) acetate] | 0.83 %/day
CCc1cccc2c3c([nH]c12)C(CC)(CC(=O)OCn1ccc2c(N(C)[C@H]4CC[C@H](CS(=O)(=O)NC)CC4)ncnc21)OCC3 (stereo partly drawn) [Ex. 94, (4-(Methyl ((trans)-4-((N-methylsulfamoyl)methyl)cyclohexyl)amino)-7H-pyrrolo [2,3-d]pyrimidin-7-yl) methyl 2-(1,8-diethyl-1,3,4,9-tetrahydropyran [3,4-b]indol-1-yl) acetate] | 0.72 %/day
CC(C(=O)OCn1ccc2c(-c3cnn([C@H](CC#N)C4CCCC4)c3)ncnc21)c1cccc(C(=O)c2ccccc2)c1 (stereo partly drawn) [Ex. 99, (4-(1-((R)-2-cyano-1-cyclopentylethyl)-1H-pyrazol-4-yl)-7H-pyrrolo [2,3-d]pyrimidin-7-yl) methyl 2-(3-benzoylphenyl) propanoate] | 0.21 %/day
CC(C(=O)OCn1ccc2c(-c3cnn([C@H](CC#N)C4CCCC4)c3)ncnc21)c1ccc(-c2ccccc2)c(F)c1 (stereo partly drawn) [Ex. 100, (4-(1-((R)-2-cyano-1-cyclopentylethyl)-1H-pyrazol-4-yl)-7H-pyrrolo [2,3-d]pyrimidin-7-yl) methyl 2-(2-fluoro-[1, 1′-biphenyl]-4-yl) propanoate] | 0.24 %/day
COc1ccc2c(c1)c(CC(=O)OCn1ccc3c(-c4cnn([C@H](CC#N)C5CCCC5)c4)ncnc31)c(C)n2C(=O)c1ccc(Cl)cc1 [Ex. 104, (R)-2-(4-(1-(2-cyano-1-cyclopentylethyl)-1H-pyrazol-4-yl)-7H-pyrrolo [2,3-d]pyrimidin-7-yl) methyl 2-(1-(4-chlorobenzoyl)-5-methoxy-2-methyl-1H-indol-3-yl) acetate] | 0.45 %/day
CCC(C(=O)OCn1ccc2c(-c3cnn([C@H](CC#N)C4CCCC4)c3)ncnc21)c1ccc(N2Cc3ccccc3C2=O)cc1 (stereo partly drawn) [Ex. 105, (4-(1-((R)-2-cyano-1-cyclopentylethyl)-1H-pyrazol-4-yl)-7H-pyrrolo [2,3-d]pyrimidin-7-yl) methyl 2-(4-(1-oxoisoindolin-2-yl)phenyl) butanoate] | 0.17 %/day
Cc1c(Cl)cccc1Nc1ccccc1C(=O)OCn1ccc2c(-c3cnn([C@H](CC#N)C4CCCC4)c3)ncnc21 [Ex. 107, (R)-(4-(1-(2-cyano-1-cyclopentylethyl)-1H-pyrazol-4-yl)-7H-pyrrolo [2,3-d]pyrimidin-7-yl) methyl 2-((3-chloro-2-methylphenyl)amino) benzoate] | 0.22 %/day
CC(=O)Nc1ccc(CC(=O)OCn2ccc3c(-c4cnn([C@H](CC#N)C5CCCC5)c4)ncnc32)cc1 [Ex. 110, (R)-(4-(1-(2-cyano-1-cyclopentylethyl)-1H-pyrazol-4-yl)-7H-pyrrolo [2,3-d]pyrimidin-7-yl) methyl 2-(4-acetamidophenyl) acetate] | 0.08 %/day
